Non-standard residues stand in square brackets, D forms with d. Residues, ends and D or L forms follow the SMILES beside them. *: point of attachment. Oleoyl = CCCCCCCC/C=C\CCCCCCCC(=O)*; Stearoyl = CCCCCCCCCCCCCCCCCC(=O)*; Palmitoyl = CCCCCCCCCCCCCCCC(=O)*; Nle = CCCC[CH](N)C(=O)O; Cbz = O=C(OCc1ccccc1)*

Data on eleven compounds can be found in US4772587A, “Dipeptide derivative of fatty acid” (Suntory Limited, priority 1985, dated 1988).

In one assay the target is prolyl endopeptidase (Elizabethkingia meningoseptica, UniProt P27028). The assay is described as follows: Measurement of anti-prolyl endopeptidase activity (decomposition of Z-glycyl-proline-β-naphthylamide). It counts as biochemical. Conditions: substrate Z-glycyl-proline-β-naphthylamide, phosphate buffer pH 7.0. The method, then:
The method of Yoshimoto and Tsuru (T. Yoshimoto and D. Tsuru, Agr. Biol. Chem. 42, 2417, 1978) was used to measure the anti-prolyl endopeptidase activities of several compounds of the present invention. A mixture of 0.0025M Z-glycyl-proline-β-naphthylamide (0.25 ml), 0.1M phosphate buffer (pH, 7.0; 0.99 ml) and a solution of a particular anti-prolyl endopeptidase compound (0.01 ml) was incubated in a test tube at 37° C. for 3 minutes. Thereafter, 0.1 ml of a solution of prolyl endopeptidase (0.2 U/ml) was added and the mixture was heated at 35° C. for 10 minutes. After the reaction, 2.0 ml of Triton X-100 in 1M acetate buffer (pH, 4.0) was added to the reaction mixture until the final concentration of the surfactant was 10%. The mixture was left at room temperature for 15 minutes and the absorbance (a) at 410 nm was measured.
A sample for blind test was prepared by using the buffer instead of the anti-prolyl endopeptidase compound and its absorbance (b) was also measured. The percent inhibition of prolyl endopeptidase was calculated by the formula: ((b-a)/b)×100, and the amount of a specific compound to achieve 50% inhibition (IC50) was determined.

Assay [1] concerns experimental amnesia caused in rats by scopolamine. The assay is described as follows: Preventive effect against experimental amnesia caused in rats by scopolamine (passive avoidance learning). It counts as in vivo, Wister male rats. The settings on record: for Avoidance time 24 hrs. later / Avoidance time 48 hrs. later / No. of amnesic rats/No. of rats tested / Percentage amnesia: scopolamine 3 mg/kg i.p. after learning. The protocol:
Several of the anti-prolyl endopeptidase compounds of the present invention were checked for their ability to prevent the inhibition of long-term memory fixation by scopolamine. Solutions of physiological saline (0.3 ml) that contained selected compounds of the present inventions in varying amounts ([…], 0.25 mg, 0.1 mg, 0.025 mg and 0.010 mg/kg) were administered intraperitoneally once a day to Wister male rats (100-120 g). One hour after the administration, electric shocks (1.7 mA) were applied to the rats so that they would acquire passive avoidance learning. Immediately thereafter, scopolamine was administered intraperitoneally to each rat in an amount of 3 mg per kg of body weight.
The result of the test was assessed both 24 hours and 48 hours after the administration of scopolamine. The number of amnesic rats and of sound rats was counted for each of the control group (rats to which the test compounds had not been administered but to which only scopolamine and physiological saline had been administered intraperitoneally and the treated group (rats to which both the test compound and scopolamine had been administered). The results are shown in Table 3.

The test system is the same in assay [2]. The assay is described as above. It counts as in vivo, Wister male rats. Conditions: for Avoidance time 48 hrs. later: sample 1 mg/kg i.p., scopolamine 3 mg/kg i.p. after learning.
Where [3] appears, read: administered orally (so in the source) in an amount of 0.025 mg/kg.
Setting [4] is: administered orally (so in the source) in an amount of 0.1 mg/kg.
Where [5] appears, read: administered orally (so in the source) in an amount of 1 mg/kg.

prolyl endopeptidase, sequence (P27028 21-705): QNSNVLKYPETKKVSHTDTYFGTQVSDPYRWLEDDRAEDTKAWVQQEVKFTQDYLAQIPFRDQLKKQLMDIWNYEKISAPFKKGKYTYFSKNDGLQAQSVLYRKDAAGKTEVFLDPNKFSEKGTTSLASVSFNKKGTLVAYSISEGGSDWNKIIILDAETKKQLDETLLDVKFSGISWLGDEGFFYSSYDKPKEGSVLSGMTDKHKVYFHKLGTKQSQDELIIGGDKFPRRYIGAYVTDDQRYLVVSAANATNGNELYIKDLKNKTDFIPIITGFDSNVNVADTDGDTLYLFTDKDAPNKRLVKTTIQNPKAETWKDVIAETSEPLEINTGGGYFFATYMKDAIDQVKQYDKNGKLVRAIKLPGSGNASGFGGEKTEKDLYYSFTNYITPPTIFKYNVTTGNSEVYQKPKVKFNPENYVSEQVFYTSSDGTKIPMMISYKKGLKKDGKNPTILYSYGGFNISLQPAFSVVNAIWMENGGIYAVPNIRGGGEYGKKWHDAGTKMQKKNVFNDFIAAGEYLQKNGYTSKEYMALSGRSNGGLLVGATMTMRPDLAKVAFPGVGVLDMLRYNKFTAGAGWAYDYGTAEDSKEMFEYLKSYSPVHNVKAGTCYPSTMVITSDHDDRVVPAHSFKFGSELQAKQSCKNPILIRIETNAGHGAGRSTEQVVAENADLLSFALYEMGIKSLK

In the case of `CCCCCCCC/C=C\CCCCCCCC(=O)NC(CCCCNC(=O)OCc1ccccc1)C(=O)N1CCCC1C=O` (stereo not shown) [SUAM 1216, oleoyl-Lys(Z)-Pro-CHO] (Oleoyl-Lys(Cbz)-Pro-aldehyde; configuration not given here), the “IC50 (amount of compound to achieve 50% inhibition)” value against prolyl endopeptidase is 0.6 ng/test tube.

With `CCCCCCCC/C=C\CCCCCCCC(=O)N1CCCC1C(=O)N1CCCC1C=O` (stereo not drawn) [SUAM 1215, Oleoyl-Pro-Pro-CHO] (Oleoyl-Pro-Pro-aldehyde; configuration not given here), on prolyl endopeptidase, the “IC50 (amount of compound to achieve 50% inhibition)” value turned out to be 0.3 ng/test tube. In addition, the “anti-amnesic action (in words)” value in assay [1] (dose of 0.01 mg/kg (orally as printed)) is recorded as “strong anti-amnesic action”. Also, in assay [1] (sample 10 μg/kg i.p.), the “Avoidance time 24 hrs. later” value is 300 s, the “Avoidance time 48 hrs. later” value was 300 s, the “No. of amnesic rats/No. of rats tested” value was 0/10 and the Percentage amnesia was found to be 0%. Further, in assay [1] (sample 25 μg/kg i.p.), the “Avoidance time 24 hrs. later” value came to 300 s, the “Avoidance time 48 hrs. later” value was found to be 300 s, the “No. of amnesic rats/No. of rats tested” value is given as 0/10 and the Percentage amnesia amounted to 0%. The “anti-amnesic action (in words)” value in assay [2] (setting [3]) is “strong anti-amnesic action”.

Consider linoleoyl-Leu-Pro-CHO [SUAM 1157], for which the “IC50 (amount of compound to achieve 50% inhibition)” value against prolyl endopeptidase amounted to 0.6 ng/test tube.

Turning to `CCCCCCCC/C=C\CCCCCCCC(=O)NC(CC(C)C)C(=O)NC(CC(C)C)C(=O)N1CCCC1C=O` (stereo not drawn) [SUAM 1158, oleoyl-Leu-Leu-Pro-CHO] (Oleoyl-Leu-Leu-Pro-aldehyde; configuration not given here), the “IC50 (amount of compound to achieve 50% inhibition)” value against prolyl endopeptidase came to 80.0 ng/test tube. In assay [1] (sample 25 μg/kg i.p.), the “Avoidance time 24 hrs. later” value was determined as 300 s, the “Avoidance time 48 hrs. later” value turned out to be 300 s, the “No. of amnesic rats/No. of rats tested” value is 0/10 and the Percentage amnesia came out at 0%. Also, in assay [1] (sample 100 μg/kg i.p.), the “Avoidance time 24 hrs. later” value worked out at 300 s, the “Avoidance time 48 hrs. later” value was 300 s, the “No. of amnesic rats/No. of rats tested” value is 0/10 and the Percentage amnesia is reported as 0%. Also, in assay [2] (setting [3]), the “anti-amnesic action (in words)” value is “excellent effect”. In assay [2] (setting [4]), the “anti-amnesic action (in words)” value is “strong anti-amnesic action”.

As to `CCCCCCCC/C=C\CCCCCCCC(=O)NC(C(=O)N1CCCC1C=O)C(C)C` (stereo not drawn) [SUAM 1156, oleoyl-Val-Pro-CHO] (Oleoyl-Val-Pro-aldehyde; configuration not given here), the “IC50 (amount of compound to achieve 50% inhibition)” value on prolyl endopeptidase is recorded as 0.7 ng/test tube. The “anti-amnesic action (in words)” value is “no remarkable effect” in assay [1] (setting [5]) and “considerably excellent anti-amnesic action” in assay [2] (setting [4]). Further, the “Avoidance time 24 hrs. later” value was 300 s in assay [1] (sample 100 μg/kg i.p.), 240.6 s in assay [1] (sample 250 μg/kg i.p.) and 184.0 s in assay [1] (sample 1 mg/kg i.p.). Also, the “Avoidance time 48 hrs. later” value in assay [1] (sample 100 μg/kg i.p.) was 276.4 s; in assay [1] (sample 250 μg/kg i.p.) it was 226.0 s; in assay [2], 119.8 s. Further, the results for the “No. of amnesic rats/No. of rats tested” value in assay [1] (sample 100 μg/kg i.p.), in assay [1] (sample 250 μg/kg i.p.) and in assay [1] (sample 1 mg/kg i.p.) were 1/10, 2/10 and 5/10, respectively. Also, the figures for the Percentage amnesia in assay [1] (sample 100 μg/kg i.p.), in assay [1] (sample 250 μg/kg i.p.) and in assay [1] (sample 1 mg/kg i.p.) were 10%, 20% and 50%, respectively.

With `CCCCCCCCCCCCCCCCCC(=O)NC(CC(C)C)C(=O)N1CCCC1C=O` (stereo not drawn) [SUAM 1154, stearoyl-Leu-Pro-CHO] (Stearoyl-Leu-Pro-aldehyde; configuration not given here), the “IC50 (amount of compound to achieve 50% inhibition)” value against prolyl endopeptidase is given as 1.0 ng/test tube. Besides, in assay [1] (sample 100 μg/kg i.p.), the “Avoidance time 24 hrs. later” value is 300 s, the “Avoidance time 48 hrs. later” value turned out to be 300 s, the “No. of amnesic rats/No. of rats tested” value is reported as 0/10 and the Percentage amnesia is recorded as 0%. For the same compound, the “anti-amnesic action (in words)” value in assay [2] (setting [4]) was “strong anti-amnesic action”.

For `CCCCCCCC/C=C\CCCCCCCC(=O)NC(CCCC)C(=O)N1CCCC1C=O` (stereo not drawn) [SUAM 1166, oleoyl-norLeu-Pro-CHO] (Oleoyl-[Nle]-Pro-aldehyde; configuration not given here), the “IC50 (amount of compound to achieve 50% inhibition)” value on prolyl endopeptidase was found to be 0.8 ng/test tube. In assay [1] (sample 25 μg/kg i.p.), the “Avoidance time 24 hrs. later” value was 300 s, the “Avoidance time 48 hrs. later” value amounted to 300 s, the “No. of amnesic rats/No. of rats tested” value is 0/10 and the Percentage amnesia came out at 0%. In addition, the “anti-amnesic action (in words)” value in assay [2] (setting [3]) was “strong anti-amnesic action”.

With `CCCCCCCC/C=C\CCCCCCCC(=O)NC(CCC=O)C(=O)N1CCCC1C=O` (stereo not shown) [SUAM 1217, oleoyl-Glu(CHO)-Pro-CHO], the “IC50 (amount of compound to achieve 50% inhibition)” value against prolyl endopeptidase stood at 0.3 ng/test tube.

Consider `CCCCCCCC/C=C\CCCCCCCC(=O)NC(CC(C)C)C(=O)N1CCCC1C=O` (stereo not drawn) [SUAM 1140, Oleoyl-Leu-Pro-CHO] (Oleoyl-Leu-Pro-aldehyde; configuration not given here), for which the “IC50 (amount of compound to achieve 50% inhibition)” value against prolyl endopeptidase was 0.8 ng/test tube. Moreover, the results for the “anti-amnesic action (in words)” value in assay [1] (setting [5]) and in assay [2] (setting [4]) were “no remarkable effect” and “considerably excellent anti-amnesic action”, respectively. Further, the “Avoidance time 24 hrs. later” value in assay [1] (sample 10 μg/kg i.p.) is 185.0 s; in assay [1] (sample 25 μg/kg i.p.) it was 300 s; in assay [1] (sample 100 μg/kg i.p.), 300 s; in assay [1] (sample 250 μg/kg i.p.), 263 s; in assay [1] (sample 1 mg/kg i.p.) it was 73.0 s. Further, the “Avoidance time 48 hrs. later” value in assay [1] (sample 10 μg/kg i.p.) amounted to 189.0 s; in assay [1] (sample 25 μg/kg i.p.), 300 s; in assay [1] (sample 100 μg/kg i.p.), 300 s; in assay [1] (sample 250 μg/kg i.p.), 284 s; in assay [2] it was 103.0 s. Moreover, the “No. of amnesic rats/No. of rats tested” value was 2/5 in assay [1] (sample 10 μg/kg i.p.); 0/5 in assay [1] (sample 25 μg/kg i.p.); 0/5 in assay [1] (sample 100 μg/kg i.p.); 1/5 in assay [1] (sample 250 μg/kg i.p.); 3/5 in assay [1] (sample 1 mg/kg i.p.). The Percentage amnesia stood at 40% in assay [1] (sample 10 μg/kg i.p.); 0% in assay [1] (sample 25 μg/kg i.p.); 0% in assay [1] (sample 100 μg/kg i.p.); 20% in assay [1] (sample 250 μg/kg i.p.); 60% in assay [1] (sample 1 mg/kg i.p.).

With `CCCCCCCC/C=C\CCCCCCCC(=O)NC(C)C(=O)N1CCCC1C=O` (stereo not shown) [SUAM 1092, oleoyl-Ala-pro-CHO], the “IC50 (amount of compound to achieve 50% inhibition)” value against prolyl endopeptidase stood at 12.0 ng/test tube.

For `CCCCCCCCCCCCCCCC(=O)NC(CC(C)C)C(=O)N1CCCC1C=O` (stereo not drawn) [SUAM 1155, palmitoyl-Leu-Pro-CHO] (Palmitoyl-Leu-Pro-aldehyde; configuration not given here), on prolyl endopeptidase, the “IC50 (amount of compound to achieve 50% inhibition)” value is reported as 0.7 ng/test tube. Also, in assay [1] (sample 100 μg/kg i.p.), the “Avoidance time 24 hrs. later” value came out at 300 s, the “Avoidance time 48 hrs. later” value was 300 s, the “No. of amnesic rats/No. of rats tested” value is reported as 0/10 and the Percentage amnesia was 0%. Moreover, the “anti-amnesic action (in words)” value in assay [2] (setting [4]) was “strong anti-amnesic action”.
